Source: PMC11151873, “Cathelicidin-HG Alleviates Sepsis-Induced Platelet Dysfunction by Inhibiting GPVI-Mediated Platelet Activation” (Research, 2024)

How the values were obtained:
[1] = test system: lactate dehydrogenase (LDH); assay: Serum LDH activity in CLP mice; type: in vivo, Male BALB/c mice; settings: i.p. 2 h after CLP; Cath-HG 1.25, 2.5, 5 mg/kg or clopidogrel 20 mg/kg; n = 4
Experimental: (§1) CLP-induced sepsis was performed based on our previous method with minor modifications. Briefly, under sterile conditions, the cecum of anesthetized mice was exposed and tightly ligated approximately 1 cm from the end. Then, the cecum was punctured twice at different mid-points with a 22-gauge needle, gently squeezed to extrude a small amount of fecal matter, returned into the peritoneal cavity which was sutured. Finally, the mice underwent resuscitation through the administration of 1 ml of preheated physiological saline via subcutaneous injection. […] Clopidogrel (20 mg/kg) was administered as a positive control, and blank control mice underwent sham surgery and received saline. All mice were monitored for 72 h after the induction of CLP. Another group of mice underwent the same procedure described above. Twenty-four hours after the surgery, the mice were euthanized, and blood, heart, liver, spleen, lung, and kidney samples were collected for subsequent analysis.
For platelet count determination, blood was collected in EDTA and analyzed using a PE-6800 Fully Auto Hematology Analyzer (Prokan, Shenzhen, China). […] TPO levels were determined by ELISA, and LDH activity was measured using an LDH assay kit.

CLP septic mice [2] = assay: Microvascular thrombosis by fluorescent bead imaging in CLP mice; type: in vivo, Male BALB/c mice; settings: lungs, liver, kidneys; i.p. 2 h after CLP; Cath-HG 1.25, 2.5, 5 mg/kg or clopidogrel 20 mg/kg
Experimental: as §1

CLP septic mice [3] = assay: Bacterial loads in organs of CLP mice; type: in vivo, Male BALB/c mice; settings: heart, liver, spleen, lung, kidney; 24 h after CLP; i.p. Cath-HG 1.25, 2.5, 5 mg/kg or clopidogrel 20 mg/kg
Experimental: as §1

[4] = test system: phosphorylation of Src, Syk, PLCγ2, and Akt; assay: Western blot: phosphorylation of GPVI downstream proteins in collagen-stimulated platelets; type: cell-based, mice; settings: washed platelets, Cath-HG 5, 10, 20 μM 5 min, n = 3, or dasatinib (Src inhibitor)
Experimental: The platelets were lysed with radioimmunoprecipitation assay buffer containing protease inhibitor and phosphatase inhibitor cocktails, and the protein concentration was determined with a bicinchoninic acid protein assay kit before SDS-polyacrylamide gel electrophoresis separation and polyvinylidene difluoride (PVDF) membrane transferring. The membranes were incubated with corresponding primary antibodies overnight at 4 °C and appropriate horseradish peroxidase-conjugated secondary antibodies at room temperature for 1 h after being blocked with 5% skimmed milk at room temperature for 1 h. Finally, the results were recorded using a FluorChem R chemiluminescence imaging system (ProteinSimple, CA, USA) and analyzed using ImageJ software.

[5] = biological target: platelet glycoprotein VI (mouse (endogenous in mouse platelets)) (UniProt P0C191)
Sequence of UniProt P0C191 (P0C191 22-313): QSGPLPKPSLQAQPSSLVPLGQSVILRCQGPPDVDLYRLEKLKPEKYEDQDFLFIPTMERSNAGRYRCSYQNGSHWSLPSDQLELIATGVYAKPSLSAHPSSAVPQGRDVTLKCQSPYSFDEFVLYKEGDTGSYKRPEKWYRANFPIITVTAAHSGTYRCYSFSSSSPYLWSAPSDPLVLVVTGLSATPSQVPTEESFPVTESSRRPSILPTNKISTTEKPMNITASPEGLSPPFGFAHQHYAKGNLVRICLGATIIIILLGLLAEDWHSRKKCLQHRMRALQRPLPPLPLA

FeCl3-injured mice = assay: FeCl3-induced carotid artery thrombosis model; type: in vivo, Male BALB/c mice; settings: FeCl3 10% (w/v), i.v. 30 min before injury, Cath-HG 5 mg/kg or heparin 1,000 U/kg
Experimental: The carotid artery thrombus experiment was carried out as described by Zhang et al. […] Anesthesia was induced with 2.0% isoflurane before the left carotid artery was exposed through a midline neck incision. A small piece of filter paper (2 mm × 1 mm) saturated with 10% (w/v) FeCl3 solution was placed on the carotid artery for 5 min to induce thrombus formation. The filter paper was then removed, and the artery was washed with saline. The carotid blood flow and occlusion time were measured to evaluate thrombus formation with the RFLSI Pro+ laser speckle blood flow imaging system (RWD, Shenzhen, China).

Compound: COC(=O)[C@H](c1ccccc1Cl)N1CCc2sccc2C1 [clopidogrel]
- LDH activity in serum [1]: significantly decreased after Cath-HG or clopidogrel treatment
- microvascular thrombosis (fluorescence of beads) (CLP septic mice [2]): reduced the fluorescence levels of lungs, liver, and kidneys
- bacterial load in organs (CLP septic mice [3]): reduced the bacterial burden in the organs of CLP mice

Compound: Cc1nc(Nc2ncc(C(=O)Nc3c(C)cccc3Cl)s2)cc(N2CCN(CCO)CC2)n1 [dasatinib]
- collagen-induced phosphorylation of GPVI downstream proteins (Src, Syk, PLCγ2, Akt) [4]: completely inhibited

Compound: Cathelicidin-HG (peptide)
- inhibition of platelet aggregation in platelet-rich plasma induced by the GPVI-specific agonist convulxin (0.6 nM); Cath-HG 5, 10 and 20 μM, value at 20 μM [5]: 63.2%

Compound: heparin
- carotid blood flow (FeCl3-injured mice; laser speckle imaging): significantly increased blood flow
- mean occlusion time of carotid artery (FeCl3-injured mice; n = 3, mean ± SD, control 2.9 ± 0.3 min): 5.4 ± 0.3 min
